# From US8735388B2, “Heterocyclic compounds with affinity to muscarinic receptors” (Abbvie B. V. A., priority 2007, dated 2014)
# Where two headings read alike, the source gives them in different places.
# Key:
# [1] = target: T1, Muscarine M3 (GPCR-A-MA-ACH M3) (Homo sapiens, UniProt P20309); experiment: Muscarine M3 receptor binding; conditions: human M3, CHO cells; receptor binding
# T1 construct: expressed in transfected cells; host or cells: CHO cells
# [2] = target: T2, Muscarine M2 (GPCR-A-MA-ACH M2) (Cavia porcellus, UniProt H0VRN8); experiment: Muscarine M2 functional assay, isolated organ (left atrium, electrically paced), agonist and antagonist mode; parameters: species or system Guinea Pig; conditions: for EC50: read-out: Cell funct. Musc. M2 Agonism pEC50 (converted)
# T2 construct: from tissue; host or cells: guinea pig left atrium (electrically paced)
# T2 sequence (H0VRN8 1-466): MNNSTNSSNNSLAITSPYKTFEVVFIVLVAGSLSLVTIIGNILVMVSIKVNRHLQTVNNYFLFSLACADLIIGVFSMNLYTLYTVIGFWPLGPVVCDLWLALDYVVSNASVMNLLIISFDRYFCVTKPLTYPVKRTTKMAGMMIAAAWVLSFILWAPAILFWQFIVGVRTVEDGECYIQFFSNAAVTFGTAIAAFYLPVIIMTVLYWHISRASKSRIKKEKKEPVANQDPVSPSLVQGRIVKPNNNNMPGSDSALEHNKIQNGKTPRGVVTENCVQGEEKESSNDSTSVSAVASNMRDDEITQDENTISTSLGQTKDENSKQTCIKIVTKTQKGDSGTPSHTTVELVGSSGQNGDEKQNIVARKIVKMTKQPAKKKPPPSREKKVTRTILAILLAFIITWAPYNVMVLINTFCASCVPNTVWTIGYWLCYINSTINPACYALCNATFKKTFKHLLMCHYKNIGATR
# [3] = target: T3, Muscarine M3 (GPCR-A-MA-ACH M3) (Cavia porcellus, UniProt H0W1Z3); experiment: Muscarine M3 functional assay, isolated organ (ileum), agonist and antagonist mode; parameters: species or system Guinea Pig; conditions: for EC50: read-out: Cell funct. Musc. M3 Agonism pEC50 (converted)
# T3 construct: from tissue; host or cells: guinea pig ileum
# T3 sequence (H0W1Z3 1-590): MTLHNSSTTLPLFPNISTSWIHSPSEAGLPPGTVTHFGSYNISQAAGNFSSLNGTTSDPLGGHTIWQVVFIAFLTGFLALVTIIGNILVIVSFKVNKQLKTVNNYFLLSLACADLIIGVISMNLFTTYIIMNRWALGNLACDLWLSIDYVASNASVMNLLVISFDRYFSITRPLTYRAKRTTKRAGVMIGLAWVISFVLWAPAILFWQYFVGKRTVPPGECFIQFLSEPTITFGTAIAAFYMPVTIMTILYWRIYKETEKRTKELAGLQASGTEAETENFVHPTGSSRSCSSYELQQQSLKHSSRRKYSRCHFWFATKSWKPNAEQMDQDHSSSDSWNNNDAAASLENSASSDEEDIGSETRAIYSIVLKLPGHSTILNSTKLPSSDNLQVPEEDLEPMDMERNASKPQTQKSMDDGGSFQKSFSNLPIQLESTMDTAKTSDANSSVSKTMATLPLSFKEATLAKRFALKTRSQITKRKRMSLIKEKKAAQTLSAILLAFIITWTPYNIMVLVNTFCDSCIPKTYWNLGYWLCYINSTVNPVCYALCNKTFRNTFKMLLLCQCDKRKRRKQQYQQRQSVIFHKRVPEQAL
# [4] = target: T4, Muscarine M1 (GPCR-A-MA-ACH M1) (Homo sapiens, UniProt P11229); experiment: Muscarine M1 receptor binding, 3H-Pirenzepine; conditions: human M1, CHO cells, ligand 2 nM, 60 min/22° C., read-out: RB Musc. M1 3H-Pirenzepine pKi (converted)
# T4 construct: expressed in transfected cells; host or cells: CHO cells
# T4 sequence (P11229 1-460): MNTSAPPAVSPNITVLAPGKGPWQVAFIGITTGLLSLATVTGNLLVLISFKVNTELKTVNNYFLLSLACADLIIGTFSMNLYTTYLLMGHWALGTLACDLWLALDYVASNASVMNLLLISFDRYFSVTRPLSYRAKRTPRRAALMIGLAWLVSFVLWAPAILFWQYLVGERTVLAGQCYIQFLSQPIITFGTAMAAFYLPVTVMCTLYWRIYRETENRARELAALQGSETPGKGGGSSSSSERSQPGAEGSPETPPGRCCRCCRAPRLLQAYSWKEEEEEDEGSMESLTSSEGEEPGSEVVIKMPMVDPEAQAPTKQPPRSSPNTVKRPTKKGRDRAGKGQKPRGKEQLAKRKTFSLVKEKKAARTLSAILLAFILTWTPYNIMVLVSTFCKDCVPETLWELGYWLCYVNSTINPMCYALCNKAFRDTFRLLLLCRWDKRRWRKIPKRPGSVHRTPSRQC
# Outline: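 Human M1 ([3H]-pirenzepine), M3, and M4 ([3H]-4DAMP or [3H]-oxotremorine) receptor preparations incubated with radioligand and compound, first at 10 μM, then at 10-fold lower concentrations if inhibition exceeded 40%. Bound ligand separated by glass-fibre filtration and counted by scintillation. IC50 from Hill fit, converted to Ki via Cheng-Prusoff, reported as pKi.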
# [5] = target: T4, Muscarine M1 (GPCR-A-MA-ACH M1); experiment: Muscarine M1 cell-based functional assay (CHO cells, Ca2+ - FLIPR Fluorimetry); conditions: human M1, CHO cells; agonist mode, reference agonist acetylcholine; read-out: Cell funct. Musc. M1 Agonism pEC50 (converted)
# [6] = read-out: Cell funct. Musc. M2 Antagonism pA2 (converted)
# T1 sequence (P20309 whole entry): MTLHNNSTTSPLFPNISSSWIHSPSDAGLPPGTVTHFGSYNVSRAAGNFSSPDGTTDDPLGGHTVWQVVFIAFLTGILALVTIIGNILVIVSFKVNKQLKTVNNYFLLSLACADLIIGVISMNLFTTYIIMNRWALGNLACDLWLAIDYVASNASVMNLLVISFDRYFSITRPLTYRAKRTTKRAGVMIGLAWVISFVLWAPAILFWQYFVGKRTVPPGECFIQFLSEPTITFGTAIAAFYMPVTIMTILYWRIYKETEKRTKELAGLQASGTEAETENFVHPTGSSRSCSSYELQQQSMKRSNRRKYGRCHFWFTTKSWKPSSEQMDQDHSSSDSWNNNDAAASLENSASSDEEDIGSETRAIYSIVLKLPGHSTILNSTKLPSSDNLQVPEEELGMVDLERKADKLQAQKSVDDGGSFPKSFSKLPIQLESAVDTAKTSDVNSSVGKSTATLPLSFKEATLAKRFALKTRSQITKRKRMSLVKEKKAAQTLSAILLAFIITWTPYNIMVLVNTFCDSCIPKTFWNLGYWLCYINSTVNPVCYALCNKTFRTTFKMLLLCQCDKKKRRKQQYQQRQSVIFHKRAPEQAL
SMILES,Ki [1] [nM],EC50 [2] [nM],"Kb [2, 6] [nM]",Kb [3] [nM],EC50 [3] [nM],Ki [4] [nM],EC50 [5] [nM],Kb [2] [nM]
C=CCCCSc1c[nH]nc1C1=CCCN(C)C1 [Compound 22L],316,> 1000,> 1000,> 1000,> 1000,794,10,–
"CN1CCC=C(c2n[nH]cc2SCCC=C(F)F)C1 [Compound 22J, 3-[4-(4,4-Difluoro-but-3enylsulfanyl)-1H-pyrazol-3-yl]-1,2,5,6-tetrahydro-1-methylpyridine]",316,> 1000,> 1000,> 1000,> 1000,631,39.8,–
"CCOCCSc1c[nH]nc1C1=CCCN(C)C1 [Compound 22O, 3-[4-(2-Ethoxy-ethylsulfanyl)-1H-pyrazol-3-yl]-1,2,5,6-tetrahydro-1-methylpyridine]",2510,> 1000,–,> 1000,> 1000,7940,31.6,20

# The next lines start with the values.
Ki [1] [nM],EC50 [2] [nM],"Kb [2, 6] [nM]",Kb [3] [nM],EC50 [3] [nM],Ki [4] [nM],EC50 [5] [nM],Kb [2] [nM],SMILES
1000,> 1000,> 1000,> 1000,> 1000,3980,39.8,–,"C=CCCCOc1c[nH]nc1C1=CCCN(C)C1 [Compound 33F, 3-(4-Pent-4-enyloxy-1H-pyrazol-3-yl)-1,2,5,6-tetrahydro-1-methylpyridine]"
794,> 1000,> 1000,> 1000,> 1000,1580,25.1,–,"CCCCCOc1c[nH]nc1C1=CCCN(C)C1 [Compound 33G, 3-(4-Pentyloxy-1H-pyrazol-3-yl)-1,2,5,6-tetrahydro-1-methylpyridine]"
